Laboratory results taken from patent US20210085801A1, “A[…] COPOLYMERS, […], AND METHODS FOR TREATING OR […] FAILURE” (CARDIOL THERAPEUTICS INC., priority 2017, published 2021).

What was measured:
[1] = In vitro release study (dialysis bag, 4% BSA); assay type: physicochemical; details: dialysis bag in 300 mL 4% BSA, 37° C.
Description: An in vitro release study was performed to determine the in vitro release characteristic of free CBD and the above micelle encapsulated CBD formulations (Micellar CBD (DP 23) and d Micellar CBD (DP 15)).
Each of three formulations shown in Table 4 having equal concentrations of CBD were placed in separate Spectra/Por dialysis bags (molecular weight cut-off=12,000-14,000 g mol-1). The dialysis bags were sealed with clips and placed in a beaker with 300 mL 4% bovine serum albumin (BSA), then in a 37° C. shaker. At time 0 and 24 hours, the volume within each bag was measured, and a sample of each solution was taken from inside the dialysis bag and quantified by HPLC. The protocol that was used is described in Aliabadi et al, Journal of Controlled Release (2005) 104 (2), 301-311, which protocol is incorporated herein by reference.

[2] = Pharmacokinetic animal study, subcutaneous injection; details: SC, single dose 10 mg/kg, rats, plasma CBD
Description: Cannulated adult male Sprague-Dawley rats were used for the pharmacokinetic experiments.
Rats were divided into 2 groups (n=4/group). Groups 1 and 2 received CBD either encapsulated in PEO-PBCL23 (referred to herein as Micellar CBD (DP 23)) or in free form (CBD dissolved in polyethylene glycol 400 (also referred to as PEG 400)). The administration was by way of subcutaneous injection in the right flank. A single dose of 10 mg/kg was administered to the rats of all groups.
Serial blood samples (200 μL) were collected using jugular vein catheters prior to CBD administration and at 0.25, 0.5, 0.75, 1, 2, 4, 6, 12 and 24, 48 and 72 hours post CBD administration. Plasma was separated (by using a centrifuge) from the samples and kept at −20° C. until it was analyzed for drug content.
100 μL of plasma samples were analyzed for CBD content as follows. The samples were spiked with internal standard (CBD d3 1 μg/mL) and 400 μL of cold acetonitrile was added to each sample. The mixture was vortexed for 1 minute and then 400 μL of water was added and the resulting mixture was further vortexed for 1 minute. Then 4 mL n-Hexane was added and the resulting mixture further vortexed for 5 minutes. The samples were centrifuged at 1160×g for 15 minutes and the organic phase layers were separated and transferred to clean tubes and evaporated to dryness. The residue was then analyzed for CBD content using a liquid chromatography-mass spectrometry (LC-MS) method involving the use of a Waters Quattro Micro triple quadrupole mass spectrometer. The residue samples were ran in MRM mode using the 315 to 193 transition for CBD, 318 to 196 for Cannabidiol-D3 solution and 311 to 223 for Cannabinol (CBN). A C18 Agilent Poroshell 120 EC column (2.1×50 mm; 2.7 μm particles) was used. The mobile phase consisted of 0.1% formic acid in HPLC-grade water (Solution A) and 0.1% formic acid in HPLC-grade acetonitrile (Solution B). A gradient elution was programmed to co33mmence with 40% Solution B for post-injection followed by gradual increase in 3 min. of Solution B to 95%. […] The flow rate was 0.3 mL/min. and 2 μL was injected. The lowest limit of quantification was set at 10 ng/mL.
The total amount of CBD that entered the bloodstream (AUC0-t; 72 h) was calculated using the trapezoidal rule from 0 to the last measured plasma concentration (Clast). The terminal elimination rate constant (β) was estimated using the linear least square regression of the log-linear phase of the concentration-time. Cmax and Tmax were the highest observed concentration and corresponding sampling time point.

For `C=C(C)[C@@H]1CCC(C)=C[C@H]1c1c(O)cc(CCCCC)cc1O` [Free-CBD, Cannabidiol], the “% CBD released after 24 hours” value [1] was “rapid release”, the “% CBD released after 24 hours” value ([1]; listed as Free-CBD dissolved in acetonitrile) was 70.65% and the AUC0-6 [2] was 209.45 ± 210.52 ng·h/mL. The AUC0-72 h [2] was 687.12 ± 217.39 ng·h/mL, the Cmax [2] was 94 ± 86.27 ng/mL and the tmax [2] was 9 ± 10.13 h.
